Earlier results in patent US5639734A, “Disaccharide inflammation inhibitors and uses thereof” (priority 1994, dated 1997).

Assays:
[1] = test system: O-linked glycoprotein synthesis; details: background; cited from earlier work
[2] = test system: sialyl Lewis X (sLe^x) ligands, HL-60 cells; details: background; cited from earlier work

## CC(=O)NC1C(OCc2ccccc2)OC(CO)C(O)C1O (centres unmarked) [GalNAcα-0-Bn, GalNAc-O-benzyl]
[1]
  Effect on mucin oligosaccharide / O-linked glycoprotein synthesis (in words): stimulates mucin oligosaccharide synthesis and inhibits O-linked glycoprotein synthesis
[2]
  Expression of sLe^x ligands and adhesion to activated endothelial cells (in words): inhibits the expression of sialyl Lewis X (sLe^x) ligands and adhesion to activated endothelial cells
